In patent US6727278B1, “Pharmaceutically active agents that impede amyloid formation in vivo” (DMS Pharmaceutical Inc., priority 1986, dated 2004):

How the values were obtained:
[1] = tested on: human DMS; experiment: In vivo assay: amyloid formation induced by intracerebral injection of human DMS with the compound, Congo Red histology; parameters: species or system Male Wistar rats; details: for Mean Lesion Area Composed of CBADs: percentage of lesion area, ** = significant decrease from untreated controls; for inhibition of amyloid formation in vivo: in-tissue levels in the range of 10^−5 to 10^−6 M
[2] = cited from earlier work
[3] = tested on: DMS (dense microspheres); experiment: Test 1: in vitro disruption of DMS on a glass slide, Congo Red red-green birefringence; details: for activity in the in vitro assay: 10^−2-to-10^−3 M concentration range; for anti-amyloid activity in vitro: concentration of about 10^−2 M
Description: TEST 1 In vitro Disruption of DMS on a Glass Slide
Homogeneous DMS preparations are placed by droplet on a clean dry glass slide. The volume and number of DMS used is optional but is recommended to be at least several thousand to facilitate interpretation (see Example 1 below). Larger samples are more costly but are easier and more unequivocal to examine. The DMS are mechanically disrupted using a stainless steel spatula scraping and pressing the DMS against a glass slide in repetitive manual back and forth motions for one minute. The slide is allowed to air dry. A few drops of Congo Red stain are then added to the dried slide and gently passed over the dried disrupted DMS for 30 seconds and the stain is then drained off the slide onto tissue paper or filter paper. The slide is then examined in the light microscope, the latter fitted with crossed polarizing lenses to assess red-green congophilic birefringence.
The result is an unequivocal red-to-green (“apple green”) birefringence similar to the red-to-apple green birefringence found in the senile-plaque amyloid of Alzheimer patients, and in quantities proportional to the volume of DMS applied to the slide initially.
For test purposes, a corresponding DMS sample is contacted with a possible pharmacological agent, and the DMS disruption/staining procedure as described above is repeated. Many variations are possible, e.g., the active agent may be applied to the DMS in solution, before application to the slide, or to the DMS on the slide. In any event, if the agent prevents the red-green birefringence observed in the negative control slide (no agent present), then the active agent should be tested further for efficacy against cerebral amyloidosis.
Approximately 80,000 homogeneously extracted DMS were placed in a droplet from a Pasteur pipette onto a glass slide, and the droplet was air dried. The DMS adhered to the glass slide. Acetylcholine (20 mM) in physiological saline was added in a droplet, as a possible test compound, to DMS.
The DMS were mechanically disrupted, in the presence of the test compound, as described above and then were allowed to air dry. A control slide was treated exactly in the same manner, except that the test compound was not added. Congo Red stain was added, and the reaction products were examined, as previously described.

[4] = cited from earlier work; remark: listed apart in the source
[5] = 10^−5 − 10^−6M, CBADs = Congophilic Birefringent Amyloid Deposits

CCc1nc(N)nc(N)c1-c1ccc(Cl)cc1 [Daraprim, Pyrimethamine]
Mean Number of CBADs Per Animal [1, 5]: 4 | Mean Lesion Area Composed of CBADs ([1]; 10^−5 − 10^−6M): 0.2** | inhibition of amyloid formation in vivo [1]: inhibit amyloid formation in vivo | oral absorption [2]: completely absorbed orally

O=P(O)(O)O[C@H]1[C@H](OP(=O)(O)O)[C@@H](OP(=O)(O)O)[C@H](OP(=O)(O)O)[C@@H](OP(=O)(O)O)[C@H]1OP(=O)(O)O [phytic acid]
activity in the in vitro assay [3]: not to be active

Nc1nc(O)nc2[nH]ncc12 [4-amino-6-hydroxypyrazolo [3,4-D] pyrimidine]
anti-amyloid activity in vitro [3]: anti-amyloid activity

CCCC(CCC)C(=O)O [valproic acid]
activity in the in vitro assay [3]: inactive

O=C1N(Cc2ccccc2)C2C[S+]3CCCC3C2N1Cc1ccccc1 (stereo not shown) [trimethophan camsylate]
activity in the in vitro assay [3]: inactive

O=C(O)c1cccnc1C(=O)O [2,3-pyridine-dicarboxylic acid]
anti-amyloid activity in vitro [3]: anti-amyloid activity

CSc1ccc2c(c1)N(CCC1CCCCN1C)c1ccccc1S2 (stereo not shown) [thioridazine]
activity in the in vitro assay [3]: inactive

NC(=O)N1c2ccccc2C=Cc2ccccc21 [carbamazepine]
activity in the in vitro assay [3]: inactive

O=c1n(CCCN2CCN(c3cccc(Cl)c3)CC2)nc2ccccn12 [trazodone]
activity in the in vitro assay [3]: inactive

Cc1cc(Cl)nc(N)n1 [2-amino-4-chloro-6-methyl pyrimidine]
anti-amyloid activity in vitro [3]: anti-amyloid activity

Cc1noc(NS(=O)(=O)c2ccc(N)cc2)c1C [Gantrisin, Sulfisoxazole]
Mean Number of CBADs Per Animal ([1]; 10^−2M): 1 | Mean Lesion Area Composed of CBADs ([1]; 10^−2M): 0.1** | Mean Number of CBADs Per Animal [1, 5]: 108 | Mean Lesion Area Composed of CBADs ([1]; 10^−5 − 10^−6M): 8.4 | absorption and excretion ([2]; route not stated): rapidly absorbed and excreted

O=C([O-])c1cc(=O)c2c(OCC(O)COc3cccc4oc(C(=O)[O-])cc(=O)c34)cccc2o1.[Na+].[Na+] [Intal, Cromolyn Sodium]
Mean Number of CBADs Per Animal [1, 5]: 2 | Mean Lesion Area Composed of CBADs ([1]; 10^−5 − 10^−6M): 0.4** | fraction entering the lungs ([2]; administered as a powder from an inhaler): about 10% | oral absorption [2]: poorly absorbed orally

OCCN(CCO)c1nc(N2CCCCC2)c2nc(N(CCO)CCO)nc(N3CCCCC3)c2n1 [Persantine, 2,6-bis-(diethanolamino)-4,8-dipiperidinopyrimido-(5,4-d)-pyrimidine]
Mean Number of CBADs Per Animal ([1]; 10^−2M): 4 | Mean Lesion Area Composed of CBADs ([1]; 10^−2M): 0.2** | Mean Number of CBADs Per Animal [1, 5]: 146 | Mean Lesion Area Composed of CBADs ([1]; 10^−5 − 10^−6M): 14.6

CN(C)C(=O)Oc1cccc([N+](C)(C)C)c1 [neostigmine methylsulfate]
activity in the in vitro assay [3]: not to be active

CC[C@H]1OC(=O)[C@H](C)[C@@H](O[C@H]2C[C@@](C)(OC)[C@@H](O)[C@H](C)O2)[C@H](C)[C@@H](O[C@@H]2O[C@H](C)C[C@H](N(C)C)[C@H]2O)[C@](C)(O)C[C@@H](C)C(=O)[C@H](C)[C@@H](O)[C@]1(C)O [erythromycin, Erythromycin]
Mean Number of CBADs Per Animal [1, 5]: 2 | Mean Lesion Area Composed of CBADs ([1]; 10^−5 − 10^−6M): 0.2** | inhibition of amyloid formation in vivo [1]: inhibit amyloid formation in vivo | half-life ([2]; in vivo): about sixteen | solubility in water [4]: water-soluble

Cl.Nc1c2c(nc3ccccc13)CCCC2 [THA, 9-amino-1,2,3,4-tetrahydroacridine hydrochloride]
anti-amyloid activity in vitro [3]: anti-amyloid activity

CN(C)C(=O)Oc1ccc[n+](C)c1 [pyridostigmine bromide]
activity in the in vitro assay [3]: not to be active
